Experimental data as given in patent publication US20140128380A1, “METHODS OF MODULATING THE ACTIVITY OF THE MC1 RECEPTOR AND TREATMENT OF CONDITIONS RELATED TO THIS RECEPTOR” (Mimetica Pty Ltd, priority 2009, published 2014).

Legend:
human MC1R [1] = target: T1, human MC1R (Homo sapiens, UniProt Q01726); assay: cAMP stimulation assay, agonist mode, HEK 293 cells transiently expressing MC1 receptor (Alphascreen); assay type: cell-based; parameters: host or cells: HEK 293 (transient transfection); settings: HEK293 cell; read-out: human MC1R agonism (cAMP EC50 HEK293 cell)
Method: HEK 293 cells transiently expressing the melanocortin MC1 receptor were suspended in stimulation buffer (Hanks buffered saline solution (HBSS), 0.1% bovine serum albumin, protease inhibitors and 0.5 mM 3-Isobutyl-1-methylxanthine) at 4×10^6 cells/mL. 5 μl of cells, plus the compounds/peptides as described below, were added to wells of a 384-well plate as soon as possible after resuspension.
To detect agonist activity, test compounds at varying concentrations were diluted in stimulation buffer at two times concentrate and 5 μl was added to wells containing cells. Positive control wells contained NDP-MSH or alpha-MSH alone (no compound) at two times concentrate
Basal level (of cAMP) control wells contained stimulation buffer only (no agonist or compounds). Known concentrations of cAMP (standards) in stimulation buffer were included on the plate, but no cells were added to these wells. The plate was then incubated for 30 mins at 37° C. with gentle shaking. After incubation, 10 μl of lysis buffer (10% Tween 20, 1 M HEPES, 0.1% BSA, protease inhibitors, ddH2O) was added to all wells to be measured. Detection of cAMP was then achieved using the Alphascreen cAMP kit (Perkin Elmer, USA), briefly described as follows. A dilution of 10 μl acceptor beads/mL of lysis buffer was prepared in low light conditions. 5 μl of diluted acceptor beads were added to each well to be measured, then the plate was incubated for 30 mins at room temperature, in the dark, with gentle shaking. In low light conditions, donor beads were diluted at 10 μl/mL of lysis buffer, to which 0.75 μl biotinylated cAMP/mL of lysis buffer was added. This mixture was allowed to incubate for 30 mins at room temperature (in the dark) before proceeding with the assay. Following incubation, 5 μl/mL of biotinylated cAMP/Donor bead mix were added per well in low light conditions and the plate was incubated in the dark, at room temperature, for a further hr. Plates were read on an Envision plate reader (Perkin Elmer) after 1 hr and ˜16 hrs incubation. cAMP concentration in the cells was determined by the use of a ‘standard curve’ generated from the output of known cAMP concentrations as described below.
Each assay plate contained a “standard curve” of known concentrations of cAMP, in 10 fold dilutions. This is an essential part of the assay as there is high inter-plate variability. The plates were read on an Envision multilabel plate reader fitted with Alphascreen technology and the raw data was imported into GraphPad Prism 4 software (GraphPad, USA) for analysis.

human MC1R (hMC1R) = target: T2, human MC1R (hMC1R) (Homo sapiens, UniProt Q01726); assay: Human MC1R radioligand binding assay (displacement of 125I-labeled NDP-MSH, Perkin Elmer hMC1R membranes); settings: displacement of [125I]NDP-MSH, compounds tested as trifluoroacetate or hydrochloride salts or free base
T2 construct: purchased Perkin Elmer ES-195-M400UA
How it was run: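 Frozen human MC1R membranes were incubated with in-house iodinated, HPLC-purified [125I]NDP-MSH for 1 hr at 37° C. Binding was measured as displacement of the labeled peptide.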

human MC1R [2] = target: T1, human MC1R; assay: cAMP accumulation in MM96L cells transiently transfected with wild type MC1R; assay type: cell-based; settings: 30 min stimulation with 10 μM compound
Method: In a similar assay testing for MC1R agonism, MM96L cells were transiently transfected with wild type MC1R and stimulated with compound (10 μM) for different time points, with cAMP accumulation compared to basal cAMP levels and the cAMP response to stimulation with NDP-MSH

T2 sequence (Q01726 whole entry): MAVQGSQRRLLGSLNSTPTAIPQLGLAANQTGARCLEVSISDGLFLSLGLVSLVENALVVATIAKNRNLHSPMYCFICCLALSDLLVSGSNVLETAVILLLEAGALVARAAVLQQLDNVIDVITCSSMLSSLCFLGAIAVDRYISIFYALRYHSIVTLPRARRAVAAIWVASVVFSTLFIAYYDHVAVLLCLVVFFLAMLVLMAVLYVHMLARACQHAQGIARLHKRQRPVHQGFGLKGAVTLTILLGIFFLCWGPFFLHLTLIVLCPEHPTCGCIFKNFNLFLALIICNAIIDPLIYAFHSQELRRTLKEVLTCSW
T1 sequence (Q01726 whole entry): as above

EC50 (human MC1R [1]) [µM] | IC50 (human MC1R (hMC1R)) [µM] | human MC1R agonism (cAMP, fold incease over basal level) (human MC1R [2]) [fold] | Structure (SMILES)
16 | < 10 |  | N=C(N)NCCC[C@@H]1N[C@H](CNC(=O)c2ccc3ccccc3c2)CCN(CC2CCCCC2)C1=O [Compound 116, N-(((3S,5S)-1-(cyclohexylmethyl)-3-(3-guanidinopropyl)-2-oxo-1,4-diazepan-5-yl)methyl)-2-naphthamide]
 | < 10 | 1.5 | NCC[C@@H]1N[C@H](CNC(=O)/C=C/c2ccc(Cl)cc2)CCN(CC(c2ccccc2)c2ccccc2)C1=O [Compound 136, (E)-N-(((3S,5S)-3-(2-aminoethyl)-1-(2,2-diphenylethyl)-2-oxo-1,4-diazepan-5-yl)methyl)-3-(4-chlorophenyl)acrylamide]
78 | < 10 | 1.5 | N=C(N)NCCC[C@H]1C(=O)N(C(c2ccccc2)c2ccccc2)CC[C@H]2CN(Cc3ccc(-c4ccccc4)cc3)C(=O)N21 [Compound 110, 1-(3-((5S,9aS)-7-benzhydryl-2-(biphenyl-4-ylmethyl)-3,6-dioxooctahydro-1H-imidazo[1,5-d][1,4]diazepin-5-yl)propyl)guanidine]
 | < 10 | 2.5 | N=C(N)NCCC[C@H]1N[C@@H](CNC(=O)c2ccc(-c3ccccc3)cc2)CCN(C(c2ccccc2)c2ccccc2)C1=O [Compound 186, N-(((3R,5R)-1-benzhydryl-3-(3-guanidinopropyl)-2-oxo-1,4-diazepan-5-yl)methyl)biphenyl-4-carboxamide]
 | < 10 | 1.5 | N=C(N)NCCC[C@@H]1N[C@@H](CNC(=O)c2ccc(-c3ccccc3)cc2)CCN(C(c2ccccc2)c2ccccc2)C1=O [Compound 185, N-(((3S,5R)-1-benzhydryl-3-(3-guanidinopropyl)-2-oxo-1,4-diazepan-5-yl)methyl)biphenyl-4-carboxamide]
11 | < 10 |  | N=C(N)NCCC[C@@H]1N[C@H](CNC(=O)c2ccc(Oc3ccccc3)cc2)CCN(CC(c2ccccc2)c2ccccc2)C1=O [Compound 112, N-(((3S,5S)-1-(2,2-diphenylethyl)-3-(3-guanidinopropyl)-2-oxo-1,4-diazepan-5-yl)methyl)-4-phenoxybenzamide]
 | < 10 |  | NCCC[C@@H]1N[C@H](CNC(=O)c2ccc3cc(F)ccc3c2)CCN(CC(c2ccccc2)c2ccccc2)C1=O [Compound 122, N-(((3S,5S)-3-(3-aminopropyl)-1-(2,2-diphenylethyl)-2-oxo-1,4-diazepan-5-yl)methyl)-6-fluoro-2-naphthamide]
 | < 10 |  | CC(C)(NC(=O)/C=C/c1ccc(Cl)cc1)[C@@H]1CCN(CC(c2ccccc2)c2ccccc2)C(=O)[C@H](CCN)N1 [Compound 164, (E)-N-(2-((3S,5S)-3-(2-aminoethyl)-1-(2,2-diphenylethyl)-2-oxo-1,4-diazepan-5-yl)propan-2-yl)-3-(4-chlorophenyl)acrylamide]
 | < 10 |  | O=C(NC[C@@H]1CCN(CC(c2ccccc2)c2ccccc2)C(=O)[C@H](CCCNC2CCCCC2)N1)c1ccc2ccccc2c1 [Compound 124, N-(((3S,5S)-3-(3-(cyclohexylamino)propyl)-1-(2,2-diphenylethyl)-2-oxo-1,4-diazepan-5-yl)methyl)-2-naphthamide]
 | < 10 |  | N=C(N)NCCC[C@@H]1N[C@H](CNC(=O)c2ccc3ccccc3c2)CCN(CC(c2ccccc2)c2ccccc2)C1=O [Compound 107, N-(((3S,5S)-1-(2,2-diphenylethyl)-3-(3-guanidinopropyl)-2-oxo-1,4-diazepan-5-yl)methyl)-2-naphthamide]
 | < 10 |  | CNC(=O)[C@H](Cc1ccc2ccccc2c1)N1CC[C@H](CNC(=O)Cc2ccc(Cl)cc2)N[C@@H](CCCNC(=N)N)C1=O [Compound 167, (S)-2-((3S,5R)-5-((2-(4-chlorophenyl)acetamido)methyl)-3-(3-guanidinopropyl)-2-oxo-1,4-diazepan-1-yl)-N-methyl-3-(naphthalen-2-yl)propanamide]
 | < 10 |  | N=C(N)NCCC[C@@H]1N[C@H](CNC(=O)c2ccc3ccccc3c2)CCN(CCC2CCCCC2)C1=O [Compound 130, N-(((3S,5S)-1-(2-cyclohexylethyl)-3-(3-guanidinopropyl)-2-oxo-1,4-diazepan-5-yl)methyl)-2-naphthamide]
 | < 10 |  | NC[C@@H]1N[C@H](CNC(=O)c2ccc(Cl)c(Cl)c2)CCN(Cc2cc(Cl)cc(Cl)c2)C1=O [Compound 148, N-(((3S,5S)-3-(aminomethyl)-1-(3,5-dichlorobenzyl)-2-oxo-1,4-diazepan-5-yl)methyl)-3,4-dichlorobenzamide]
 | < 10 |  | O=C(NC[C@@H]1CCN(CC(c2ccccc2)c2ccccc2)C(=O)[C@H](CCN2CCCCC2)N1)c1ccc(Cl)c(Cl)c1 [Compound 137, 3,4-dichloro-N-(((3S,5S)-1-(2,2-diphenylethyl)-2-oxo-3-(2-(piperidin-1-yl)ethyl)-1,4-diazepan-5-yl)methyl)benzamide]
7 | < 10 |  | CC(=O)N[C@@H](Cc1c[nH]cn1)C(=O)N[C@H](Cc1ccccc1)[C@@H]1CCN(CCc2c[nH]c3ccccc23)C(=O)[C@H](CCCNC(=N)N)N1 [Compound 119, (S)—N—((R)-1-((3S,5S)-1-(2-(1H-indol-3-yl)ethyl)-3-(3-guanidinopropyl)-2-oxo-1,4-diazepan-5-yl)-2-phenylethyl)-2-acetamido-3-(1H-imidazol-4-yl)propanamide]
 | < 10 |  | Cc1ccc(/C=C/C(=O)NC[C@@H]2CCN(CC(c3ccccc3)c3ccccc3)C(=O)[C@H](CCCN)N2)cc1 [Compound 120, (E)-N-(((3S,5S)-3-(3-aminopropyl)-1-(2,2-diphenylethyl)-2-oxo-1,4-diazepan-5-yl)methyl)-3-p-tolylacrylamide]
 | < 10 |  | CN(C)C(=N)NCCC[C@@H]1N[C@H](CNC(=O)c2ccc3ccccc3c2)CCN(CC(c2ccccc2)c2ccccc2)C1=O [Compound 117, N-(((3S,5S)-3-(3-(3,3-dimethylguanidino)propyl)-1-(2,2-diphenylethyl)-2-oxo-1,4-diazepan-5-yl)methyl)-2-naphthamide]
 | < 10 |  | O=C(NC[C@@H]1CCN(Cc2cc(Cl)cc(Cl)c2)C(=O)[C@H](CN2CCCCC2)N1)c1ccc(Cl)c(Cl)c1 [Compound 151, 3,4-dichloro-N-(((3S,5S)-1-(3,5-dichlorobenzyl)-2-oxo-3-(piperidin-1-ylmethyl)-1,4-diazepan-5-yl)methyl)benzamide]
 | < 10 |  | N=C(N)NCCC[C@@H]1N[C@H](CNC(=O)c2ccc3ccccc3c2)CCN(CC2c3ccccc3-c3ccccc32)C1=O [Compound 126, N-(((3S,5S)-1-((9H-fluoren-9-yl)methyl)-3-(3-guanidinopropyl)-2-oxo-1,4-diazepan-5-yl)methyl)-2-naphthamide]
 | < 10 |  | CNC(=O)[C@H](Cc1ccc2ccccc2c1)N1CC[C@H](CNC(=O)[C@H](N)Cc2ccc(Cl)cc2)N[C@@H](CCCNC(=N)N)C1=O [Compound 174, (R)-2-amino-3-(4-chlorophenyl)-N-(((3S,5R)-3-(3-guanidinopropyl)-1-((S)-1-(methylamino)-3-(naphthalen-2-yl)-1-oxopropan-2-yl)-2-oxo-1,4-diazepan-5-yl)methyl)propanamide]
